Measurements published in patent US20060069132A1, “Azolecarboxamide herbicides” (priority 2004, published 2006).

Tests used:
Assay in all cases: Test J Compounds 2 and 6 alone and in combination with other herbicides, foliage spray
Details in all cases: applied alone
wheat (TRZAS) = type: in vivo, Triticum aestivum; parameters: key: 0 = no effect, 100 = complete control
Text: (§1) Colby's Equation was used to calculate the expected additive herbicidal effect of the mixtures of Compound 6 with Harmony® Extra (i.e. a 2:1 mixture by weight of thifensulfuron-methyl and tribenuron-methyl). Colby's Equation (Colby, S. R. “Calculating Synergistic and Antagonistic Responses of Herbicide Combinations,” Weeds, 15(1), pp 20-22 (1967)) calculates the expected additive effect of herbicidal mixtures, and for two active ingredients is of the form: Pa+b=Pa+Pb−(PaPb/100) wherein • Pa+b is the percentage effect of the mixture expected from additive contribution of the individual components, • Pa is the observed percentage effect of the first active ingredient at the same use rate as in the mixture, and • Pb is the observed percentage effect of the second active ingredient at the same use rate as in the mixture.
(§2) Seeds of test plants consisting of barnyardgrass (ECHCG; Echinochloa crus-galli (L.) Beauv.), blackgrass (ALOMY; Alopecurus myosuroides Huds.), Surinam grass (BRADC; Urochloa decumbens (Staph) R. D. Webster, previously named Brachiaria decumbens Stapf), cocklebur (XANST, Xanthium strumarium L.), corn (ZEAMD, Zea mays L. cv. ‘Pioneer 33G26’), large crabgrass (DIGSA, Digitaria sanguinalis (L.) Scop.), giant foxtail (SETFA, Setaria faberi Herrm.), lambsquarters (CHEAL, Chenopodium album L.), morningglory (IPOCO, Ipomoea coccinea L.), pigweed (AMARE, Amaranthus retroflexus L.), velvetleaf (ABUTH, Abutilon theophrasti Medik.) wheat (TRZAS, Triticum aestivum L. cv. ‘Recital’) and wild oat (AVEFA, Avena fatua L.) were planted in Redi-Earth® planting medium (Scotts Company, 14111 Scottslawn Road, Marysville, Ohio 43041) comprising spaghnum peat moss and vermiculite. Seeds of small-seeded species were planted about 1 cm deep; larger seeds were planted about 2.5 cm deep. Plants were grown in a greenhouse using supplemental lighting to maintain a photoperiod of about 14 hours; daytime and nighttime temperatures were about 24-30° C. and 22-25° C., respectively. Balanced fertilizer was applied through the watering system. The plants were grown for 7 to 11 days so that at time of treatment the plants ranged in height from 2 to 18 cm (1- to 4-leaf stage). Treatments consisted of Compounds 2 and 6 (technical material), atrazine (90DF), terbacil (Sinbar® 80DF), hexazinone (Velpar® 75WG), diuron (Karmex® 80WP) and paraquat (Gramoxone® Extra, 37%) alone and in combination, suspended or dissolved in an aqueous solvent comprising a nonionic surfactant and applied as a foliage spray using a volume of 541 L/ha. Each treatment was triply replicated. […] Treated plants and controls were maintained in the greenhouse and watered as needed with care to not wet the foliage for the first 24 hours after treatment. The effects on the plants 15 days after treatment were visually compared to untreated controls. Plant response ratings, listed in Table J as the means of the thee replicates, are based on a scale of 0 to 100 where 0 is no effect and 100 is complete control. Also listed in Table J are the expected effects for the mixtures calculated using Colby's Equation.

Surinam grass (BRADC) = type: in vivo, Urochloa decumbens; parameters: key: 0 = no effect, 100 = complete control
Text: as §1, §2

pigweed (AMARE) = type: in vivo, Amaranthus retroflexus; parameters: key: 0 = no effect, 100 = complete control
Text: as §1, §2

wild oat (AVEFA) = type: in vivo, Avena fatua; parameters: key: 0 = no effect, 100 = complete control
Text: as §1, §2

barnyardgrass (ECHCG) = type: in vivo, Echinochloa crus-galli; parameters: key: percentage herbicidal effect (observed)
Text: as §1, §2

lambsquarters (CHEAL) = type: in vivo, Chenopodium album; parameters: key: % herbicidal effect (observed)
Text: as §1, §2

corn (ZEAMD) = type: in vivo, Zea mays; parameters: key: percentage herbicidal effect (observed)
Text: as §1, §2

giant foxtail (SETFA) = type: in vivo, Setaria faberi; parameters: key: 0 = no effect, 100 = complete control
Text: as §2

velvetleaf (ABUTH) = type: in vivo, Abutilon theophrasti; parameters: key: 0 = no effect, 100 = complete control
Text: as §1, §2

blackgrass (ALOMY) = type: in vivo, Alopecurus myosuroides; parameters: key: 0 = no effect, 100 = complete control
Text: as §1, §2

morningglory (IPOCO) = type: in vivo, Ipomoea coccinea; parameters: key: 0 = no effect, 100 = complete control
Text: as §2

cocklebur (XANST) = type: in vivo, Xanthium strumarium; parameters: key: 0 = no effect, 100 = complete control
Text: as §2

large crabgrass (DIGSA) = type: in vivo, Digitaria sanguinalis; parameters: key to DIGSA Obsd.: 0 = no effect, 100 = complete control
Text: as §1, §2

SMILES | TRZAS Obsd. (wheat (TRZAS); 250 g a.i./ha) | BRADC Obsd. (Surinam grass (BRADC); 250 g a.i./ha) | AMARE Obsd. (pigweed (AMARE); 250 g a.i./ha) | AVEFA Obsd. (wild oat (AVEFA); 250 g a.i./ha) | ECHCG Obsd. (barnyardgrass (ECHCG); 250 g a.i./ha) | CHEAL Obsd. (lambsquarters (CHEAL); 250 g a.i./ha) | ZEAMD Obsd. (corn (ZEAMD); 250 g a.i./ha) | SETFA Obsd. (giant foxtail (SETFA); 250 g a.i./ha) | ABUTH Obsd. (velvetleaf (ABUTH); 250 g a.i./ha) | ALOMY Obsd. (blackgrass (ALOMY); 250 g a.i./ha) | IPOCO Obsd. (morningglory (IPOCO); 250 g a.i./ha) | XANST Obsd. (cocklebur (XANST); 250 g a.i./ha) | DIGSA Obsd. (large crabgrass (DIGSA); 250 g a.i./ha) | also measured
CCNc1nc(Cl)nc(NC(C)C)n1 [atrazine] | 8 | 5 | 75 | 28 | 23 | 95 | 12 | 18 | 25 | 28 | 75 | 72 | 5 | TRZAS Obsd. (wheat (TRZAS); 125 g a.i./ha): 3; BRADC Obsd. (Surinam grass (BRADC); 125 g a.i./ha): 15; AMARE Obsd. (pigweed (AMARE); 125 g a.i./ha): 38; AVEFA Obsd. (wild oat (AVEFA); 125 g a.i./ha): 13; ECHCG Obsd. (barnyardgrass (ECHCG); 125 g a.i./ha): 20; CHEAL Obsd. (lambsquarters (CHEAL); 125 g a.i./ha): 67; ZEAMD Obsd. (corn (ZEAMD); 125 g a.i./ha): 3; SETFA Obsd. (giant foxtail (SETFA); 125 g a.i./ha): 0; ABUTH Obsd. (velvetleaf (ABUTH); 125 g a.i./ha): 15; ALOMY Obsd. (blackgrass (ALOMY); 125 g a.i./ha): 3; IPOCO Obsd. (morningglory (IPOCO); 125 g a.i./ha): 52; XANST Obsd. (cocklebur (XANST); 125 g a.i./ha): 45; DIGSA Obsd. (large crabgrass (DIGSA); 125 g a.i./ha): 5
CN(C)C(=O)Nc1ccc(Cl)c(Cl)c1 [diuron] | 30 | 68 | 95 | 15 | 62 | 98 | 20 | 35 | 77 | 25 | 92 | 93 | 68 | TRZAS Obsd. (wheat (TRZAS); 500 g a.i./ha): 40; BRADC Obsd. (Surinam grass (BRADC); 500 g a.i./ha): 85; AMARE Obsd. (pigweed (AMARE); 500 g a.i./ha): 100; AVEFA Obsd. (wild oat (AVEFA); 500 g a.i./ha): 47; ECHCG Obsd. (barnyardgrass (ECHCG); 500 g a.i./ha): 98; CHEAL Obsd. (lambsquarters (CHEAL); 500 g a.i./ha): 100; ZEAMD Obsd. (corn (ZEAMD); 500 g a.i./ha): 28; SETFA Obsd. (giant foxtail (SETFA); 500 g a.i./ha): 67; ABUTH Obsd. (velvetleaf (ABUTH); 500 g a.i./ha): 100; ALOMY Obsd. (blackgrass (ALOMY); 500 g a.i./ha): 43; IPOCO Obsd. (morningglory (IPOCO); 500 g a.i./ha): 100; XANST Obsd. (cocklebur (XANST); 500 g a.i./ha): 100; DIGSA Obsd. (large crabgrass (DIGSA); 500 g a.i./ha): 63
